According to patent publication US11981686B2, “Urea compound having substituent” (DAIICHI SANKYO COMPANY, LIMITED, priority 2019, dated 2024):

Molecular target: SIRT6 enzyme (Homo sapiens, UniProt Q8N6T7)
Assay: Measurement of deacetylation activity (SIRT6, AlphaLISA, H3K9(Ac) peptide)
Assay type: biochemical
Conditions: SIRT6 25 ng/mL, H3K9(Ac) biotin peptide 2 nM, NAD 10 μM, room temperature 30 minutes, duplicate
Procedure, shortened: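 Activation read as EC150, the concentration giving 150% activity relative to enzyme/no-enzyme DMSO controls, via variable-slope fit. Deacetylation of 2 nM biotinylated H3K9(Ac) peptide with 10 μM NAD+ by 25 ng/mL SIRT6 ran 30 min at room temperature, pH 8.0, then AlphaLISA detection of unmodified H3K9.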

Chain of SIRT6 enzyme (Q8N6T7 whole entry, species assumed): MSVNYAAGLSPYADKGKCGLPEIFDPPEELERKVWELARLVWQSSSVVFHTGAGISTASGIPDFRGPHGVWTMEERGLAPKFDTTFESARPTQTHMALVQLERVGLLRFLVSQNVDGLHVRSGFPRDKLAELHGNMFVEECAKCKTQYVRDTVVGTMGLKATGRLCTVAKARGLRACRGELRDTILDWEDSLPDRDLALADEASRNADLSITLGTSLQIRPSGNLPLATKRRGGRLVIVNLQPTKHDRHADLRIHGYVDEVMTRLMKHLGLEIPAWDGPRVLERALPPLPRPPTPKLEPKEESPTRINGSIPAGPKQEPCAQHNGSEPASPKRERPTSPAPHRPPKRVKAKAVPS

| SMILES | EC150 (the concentration of the compound showing a relative enzyme activity of 150%) |
| --- | --- |
| CC(C)OC(=O)N1CC2Cc3nc(NC(=O)NC4CCOCC4)sc3C(C1)N2c1nc(-c2ccc(F)cc2)no1 (stereo not shown) [Example 143, Propan-2-yl-10-[3-(4-fluorophenyl)-1,2,4-oxadiazol-5-yl]-2-{[(oxan-4-yl)carbamoyl]amino}-4,7,8,9-tetrahydro-4,8-epimino[1,3]thiazolo[5,4-d]azocine-6(5H)-carboxylate] | 0.62 μm |
| CC(C)(O)CNC(=O)Nc1nc2c(s1)[C@@H]1COC[C@H](C2)N1c1nc2cc(C(F)(F)F)ccc2o1 [Example 144, N-(2-hydroxy-2-methylpropyl)-N′-{(4S,8S)-10-[5-(trifluoromethyl)-1,3-benzoxazol-2-yl]-4,7,8,9-tetrahydro-5H-4,8-epiminooxocino[5,4-d][1,3]thiazol-2-yl}urea] | 0.61 μm |
| Cc1ccc2oc(N3[C@@H]4COC[C@H]3c3sc(NC(=O)NCC(C)(C)O)nc3C4)nc2c1 [Example 145, N-(2-hydroxy-2-methylpropyl)-N′-[(4S,8S)-10-(5-methyl-1,3-benzoxazol-2-yl)-4,7,8,9-tetrahydro-5H-4,8-epiminooxocino[5,4-d][1,3]thiazol-2-yl]urea] | 2.2 μm |
| CC(C)(O)CNC(=O)Nc1nc2c(s1)[C@@H]1COC[C@H](C2)N1c1nc2cc(F)c(F)cc2o1 [Example 146, N-[(4S,8S)-10-(5,6-difluoro-1,3-benzoxazol-2-yl)-4,7,8,9-tetrahydro-5H-4,8-epiminooxocino[5,4-d][1,3]thiazol-2-yl]-N′-(2-hydroxy-2-methylpropyl)urea] | 1.9 μm |
| C[C@H](CO)NC(=O)Nc1nc2c(s1)[C@@H]1COC[C@H](C2)N1c1nc2cc(F)cc(F)c2o1 [Example 147, N-[(4S,8S)-10-(5,7-difluoro-1,3-benzoxazol-2-yl)-4,7,8,9-tetrahydro-5H-4,8-epiminooxocino[5,4-d][1,3]thiazol-2-yl]-N′-[(2R)-1-hydroxypropan-2-yl]urea] | 3.3 μm |
| Cc1cc2nc(N3[C@@H]4COC[C@H]3c3sc(NC(=O)N[C@H](C)CO)nc3C4)oc2cc1C [Example 148, N-[(4S,8S)-10-(5,6-dimethyl-1,3-benzoxazol-2-yl)-4,7,8,9-tetrahydro-5H-4,8-epiminooxocino[5,4-d][1,3]thiazol-2-yl]-N′-[(2R)-1-hydroxypropan-2-yl]urea] | 0.95 μm |
| O=C(Nc1nc2c(s1)[C@@H]1COC[C@H](C2)N1c1nc2cc(Cl)ccc2o1)N[C@H]1CC[C@H](O)CC1 [Example 149, N-[(4S,8S)-10-(5-chloro-1,3-benzoxazol-2-yl)-4,7,8,9-tetrahydro-5H-4,8-epiminooxocino[5,4-d] [1,3]thiazol-2-yl]-N′-[(1r,4r)-4-hydroxycyclohexyl]urea] | 0.45 μm |
| O=C(NCC1(O)CCOCC1)Nc1nc2c(s1)[C@@H]1COC[C@H](C2)N1c1nc2cc(Cl)ccc2o1 [Example 150, N-[(4S,8S)-10-(5-chloro-1,3-benzoxazol-2-yl)-4,7,8,9-tetrahydro-5H-4,8-epiminooxocino[5,4-d][1,3]thiazol-2-yl]-N′-[(4-hydroxyoxan-4-yl)methyl]urea] | 0.43 μm |
| COc1ccc2oc(N3[C@@H]4COC[C@H]3c3sc(NC(=O)N[C@H]5CCOC5)nc3C4)nc2c1 [Example 151, N-[(4S,8S)-10-(5-methoxy-1,3-benzoxazol-2-yl)-4,7,8,9-tetrahydro-5H-4,8-epiminooxocino[5,4-d][1,3]thiazol-2-yl]-N′-[(3S)-oxolan-3-yl]urea] | 0.78 μm |
| C[C@H](CO)NC(=O)Nc1nc2c(s1)C1CCC(C2)N1c1nc2cc(S(C)(=O)=O)ccc2o1 (stereo partly drawn) [Example 152, N-[(2R)-1-hydroxypropan-2-yl]-N′-{9-[5-(methanesulfonyl)-1,3-benzoxazol-2-yl]-5,6,7,8-tetrahydro-4H-5,8-epiminocyclohepta[d][1,3]thiazol-2-yl}urea] | 2.7 μm |
